# According to ChEMBL document CHEMBL3588800, “Novel Bioactive Hybrid Compound Dual Targeting Estrogen Receptor and Histone Deacetylase for the Treatment of Breast Cancer” (J Med Chem, 2015):
# Experiments:
# [1] = molecular target: Histone deacetylase 1 (Homo sapiens, UniProt Q13547); test: Inhibition of human recombinant HDAC1 after 15 mins by fluorogenic assay; settings: read-out: IC50
# [2] = test system: MCF7; test: cells; type: functional, cell-based; settings: Homo sapiens, MCF7, 72 h
# [3] = molecular target: T1, Estrogen receptor (Homo sapiens) (UniProt P03372); test: Antagonist activity at ER-alpha (unknown origin) transfected in HEK293T cells assessed as inhibition of transcriptional activity after 24 hrs by luciferase reporter gene assay relative to 17-beta estradiol; type: cell-based; settings: HEK-293T
# T1 sequence (whole entry): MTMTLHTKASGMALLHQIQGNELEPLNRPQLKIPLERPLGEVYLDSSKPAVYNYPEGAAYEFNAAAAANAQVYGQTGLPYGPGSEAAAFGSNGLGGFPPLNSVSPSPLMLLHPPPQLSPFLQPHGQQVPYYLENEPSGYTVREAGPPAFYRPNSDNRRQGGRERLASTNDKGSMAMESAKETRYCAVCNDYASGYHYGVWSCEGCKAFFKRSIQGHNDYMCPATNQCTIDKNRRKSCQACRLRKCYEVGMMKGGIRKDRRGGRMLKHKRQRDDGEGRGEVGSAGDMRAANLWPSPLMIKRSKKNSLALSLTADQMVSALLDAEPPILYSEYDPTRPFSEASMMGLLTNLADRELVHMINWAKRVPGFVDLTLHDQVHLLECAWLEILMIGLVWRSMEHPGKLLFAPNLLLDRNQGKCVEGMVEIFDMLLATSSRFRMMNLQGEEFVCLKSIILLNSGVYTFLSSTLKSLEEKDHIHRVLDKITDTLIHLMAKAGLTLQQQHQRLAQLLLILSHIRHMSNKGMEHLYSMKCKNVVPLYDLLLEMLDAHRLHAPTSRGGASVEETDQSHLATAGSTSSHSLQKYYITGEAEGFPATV
# [4] = test system: DU-145; test: cells; type: functional, cell-based; settings: Homo sapiens, DU-145, 72 h
# [5] = molecular target: T2, Estrogen receptor beta (Homo sapiens, UniProt Q92731); test: Antagonist activity at ER-beta (unknown origin) transfected in HEK293T cells assessed as inhibition of transcriptional activity after 24 hrs by luciferase reporter gene assay; type: cell-based, HEK-293T
# T2 sequence (Q92731 whole entry): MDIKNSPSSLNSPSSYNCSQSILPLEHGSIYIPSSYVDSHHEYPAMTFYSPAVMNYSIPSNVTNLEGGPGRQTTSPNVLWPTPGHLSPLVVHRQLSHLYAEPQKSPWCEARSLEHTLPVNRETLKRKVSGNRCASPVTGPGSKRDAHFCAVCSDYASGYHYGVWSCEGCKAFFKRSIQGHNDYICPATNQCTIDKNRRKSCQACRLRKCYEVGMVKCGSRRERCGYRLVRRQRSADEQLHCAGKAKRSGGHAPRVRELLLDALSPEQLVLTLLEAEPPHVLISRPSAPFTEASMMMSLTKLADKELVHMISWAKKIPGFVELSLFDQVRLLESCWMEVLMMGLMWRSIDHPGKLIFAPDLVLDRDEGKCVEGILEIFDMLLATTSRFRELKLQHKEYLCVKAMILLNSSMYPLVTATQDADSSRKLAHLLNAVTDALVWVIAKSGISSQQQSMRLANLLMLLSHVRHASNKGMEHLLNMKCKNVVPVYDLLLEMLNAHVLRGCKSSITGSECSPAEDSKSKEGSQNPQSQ
# [6] = molecular target: T3, Protein deacetylase HDAC6 (Homo sapiens, UniProt Q9UBN7); test: Inhibition of human recombinant HDAC6 after 15 mins by fluorogenic assay; settings: read-out: IC50
# T3 sequence (Q9UBN7 whole entry): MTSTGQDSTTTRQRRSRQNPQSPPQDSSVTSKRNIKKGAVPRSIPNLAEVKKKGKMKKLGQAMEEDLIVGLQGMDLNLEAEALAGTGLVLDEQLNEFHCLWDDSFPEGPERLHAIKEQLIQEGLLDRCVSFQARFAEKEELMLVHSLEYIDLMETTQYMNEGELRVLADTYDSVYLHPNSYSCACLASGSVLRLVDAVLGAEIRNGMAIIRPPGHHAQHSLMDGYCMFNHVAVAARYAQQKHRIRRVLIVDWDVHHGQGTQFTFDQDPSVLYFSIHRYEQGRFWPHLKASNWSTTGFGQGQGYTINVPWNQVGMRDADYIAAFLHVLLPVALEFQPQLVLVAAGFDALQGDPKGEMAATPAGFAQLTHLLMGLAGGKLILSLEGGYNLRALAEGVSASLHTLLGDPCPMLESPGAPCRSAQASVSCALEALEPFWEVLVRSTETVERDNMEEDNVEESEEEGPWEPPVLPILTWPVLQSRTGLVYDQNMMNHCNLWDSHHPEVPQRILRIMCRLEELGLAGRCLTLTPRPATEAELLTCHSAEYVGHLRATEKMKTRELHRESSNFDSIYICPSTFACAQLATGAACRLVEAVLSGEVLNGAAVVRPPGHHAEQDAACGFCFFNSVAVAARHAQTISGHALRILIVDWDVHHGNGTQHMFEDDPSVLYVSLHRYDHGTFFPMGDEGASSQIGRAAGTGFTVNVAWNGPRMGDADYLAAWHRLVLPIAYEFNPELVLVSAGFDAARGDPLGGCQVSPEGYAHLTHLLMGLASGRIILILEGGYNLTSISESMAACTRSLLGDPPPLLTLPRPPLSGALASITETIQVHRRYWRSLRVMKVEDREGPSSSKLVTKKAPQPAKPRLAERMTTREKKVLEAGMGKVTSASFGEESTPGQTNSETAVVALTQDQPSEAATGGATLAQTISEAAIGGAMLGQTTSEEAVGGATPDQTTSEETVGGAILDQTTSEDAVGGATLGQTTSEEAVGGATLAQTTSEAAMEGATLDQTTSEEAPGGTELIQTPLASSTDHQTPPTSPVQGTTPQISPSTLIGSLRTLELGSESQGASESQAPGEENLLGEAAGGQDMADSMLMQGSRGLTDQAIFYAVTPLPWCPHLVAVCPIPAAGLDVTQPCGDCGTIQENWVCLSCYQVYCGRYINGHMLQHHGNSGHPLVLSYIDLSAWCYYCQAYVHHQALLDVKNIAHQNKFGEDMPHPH
# [7] = molecular target: T4, Estrogen receptor (Homo sapiens, UniProt P03372); test: Antagonist activity at ER-alpha (unknown origin) transfected in HEK293T cells assessed as inhibition of transcriptional activity after 24 hrs by luciferase reporter gene assay; type: cell-based, HEK-293T
# T4 sequence (P03372 whole entry): T1 sequence (whole entry)
# [8] = test system: Vero; test: cells; type: ADME, cell-based; settings: Chlorocebus sabaeus, 72 h
# [9] = Therapeutic index, ratio of IC50 for african green monkey Vero cells to IC50 for human MCF7 cells
# [10] = molecular target: T2, Estrogen receptor beta; test: Agonist activity at ER-beta (unknown origin) transfected in HEK293T cells assessed as stimulation of transcriptional activity after 24 hrs by luciferase reporter gene assay relative to 17-beta estradiol; type: cell-based; settings: HEK-293T
# [11] = molecular target: T2, Estrogen receptor beta; test: Antagonist activity at ER-beta (unknown origin) transfected in HEK293T cells assessed as inhibition of transcriptional activity after 24 hrs by luciferase reporter gene assay relative to 17-beta estradiol; type: cell-based; settings: HEK-293T
# [12] = molecular target: T2, Estrogen receptor beta; test: Binding affinity to human ER-beta ligand binding domain after 2 hrs by competitive fluorometric binding assay
# [13] = molecular target: T4, Estrogen receptor; test: Binding affinity to human ER-alpha ligand binding domain after 2 hrs by competitive fluorometric binding assay
# [14] = molecular target: T1, Estrogen receptor (Homo sapiens); test: Agonist activity at ER-alpha (unknown origin) transfected in HEK293T cells assessed as stimulation of transcriptional activity after 24 hrs by luciferase reporter gene assay relative to 17-beta estradiol; type: cell-based; settings: HEK-293T
# [15] = molecular target: T2, Estrogen receptor beta; test: Agonist activity at ER-beta (unknown origin) transfected in HEK293T cells assessed as stimulation of transcriptional activity after 24 hrs by luciferase reporter gene assay; type: cell-based, HEK-293T
# [16] = molecular target: T4, Estrogen receptor; test: Agonist activity at ER-alpha (unknown origin) transfected in HEK293T cells assessed as stimulation of transcriptional activity after 24 hrs by luciferase reporter gene assay; type: cell-based, HEK-293T
# Histone deacetylase 1, sequence (Q13547 whole entry): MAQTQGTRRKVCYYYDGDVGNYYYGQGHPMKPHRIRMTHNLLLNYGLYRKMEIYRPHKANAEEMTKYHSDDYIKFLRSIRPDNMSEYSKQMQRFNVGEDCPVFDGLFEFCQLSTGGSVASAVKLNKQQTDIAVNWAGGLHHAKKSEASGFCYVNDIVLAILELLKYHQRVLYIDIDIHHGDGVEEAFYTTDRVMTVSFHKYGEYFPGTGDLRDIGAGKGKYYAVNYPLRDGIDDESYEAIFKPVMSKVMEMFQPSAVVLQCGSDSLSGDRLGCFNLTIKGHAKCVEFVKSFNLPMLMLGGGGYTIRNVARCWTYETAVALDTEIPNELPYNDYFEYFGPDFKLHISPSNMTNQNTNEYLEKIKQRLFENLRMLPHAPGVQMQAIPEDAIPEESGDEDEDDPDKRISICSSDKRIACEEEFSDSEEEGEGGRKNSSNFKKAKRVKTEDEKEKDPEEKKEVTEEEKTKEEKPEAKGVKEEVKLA
Compound,IC50 [1],IC50 [2],Efficacy [3],IC50 [4],IC50 [5],IC50 [6],IC50 [7],IC50 [8],selectivity ratio [9],Efficacy [10],Efficacy [11],Ki [12],Ki [13],Efficacy [14],EC50 [15],EC50 [16]
COC(=O)CCCCCCC(=O)Nc1ccc(OS(=O)(=O)C2CC3OC2C(c2ccc(O)cc2)=C3c2ccc(O)cc2)cc1 (stereo unspecified),534 nM,8100 nM,10%,20400 nM,330 nM,1580 nM,10800 nM,> 100000 nM,> 12.3,4%,76%,756 nM,59.9 nM,-35%,,
O=C(O)CCCCCCC(=O)Nc1ccc(OS(=O)(=O)C2CC3OC2C(c2ccc(O)cc2)=C3c2ccc(O)cc2)cc1 (stereo unspecified),107 nM,19100 nM,25%,34800 nM,160 nM,8340 nM,50 nM,> 100000 nM,,-5%,89%,,,-10%,,
O=C(CCCCCCC(=O)Nc1ccc(OS(=O)(=O)C2CC3OC2C(c2ccc(O)cc2)=C3c2ccc(O)cc2)cc1)NO (stereo unspecified),583 nM,55200 nM,104%,42300 nM,1140 nM,189 nM,,> 100000 nM,,3%,-27%,127 nM,148 nM,-15%,,
O=C(CCCCCCC(=O)Nc1ccc(C2=C(c3ccc(O)cc3)C3CC(S(=O)(=O)Oc4ccc5ccccc5c4)C2O3)cc1)NO (stereo unspecified),349 nM,32200 nM,-26%,12400 nM,7700 nM,322 nM,160 nM,> 100000 nM,,-17%,19%,102 nM,307 nM,13%,,
COc1cccc(OS(=O)(=O)C2CC3OC2C(c2ccc(NC(=O)CCCCCCC(=O)O)cc2)=C3c2ccc(O)cc2)c1 (racemic),,17900 nM,87%,53800 nM,,,,> 100000 nM,> 5.59,100%,100%,81.5 nM,4430 nM,67%,1100 nM,1160 nM
O=C(O)CCCCCCC(=O)Nc1ccc(C2=C(c3ccc(O)cc3)C3CC(S(=O)(=O)Oc4ccc(O)cc4)C2O3)cc1 (racemic),,> 100000 nM,99%,> 100000 nM,11700 nM,,,> 100000 nM,,69%,23%,39 nM,133 nM,79%,13400 nM,2420 nM
COc1ccccc1OS(=O)(=O)C1CC2OC1C(c1ccc(NC(=O)CCCCCCC(=O)O)cc1)=C2c1ccc(O)cc1 (racemic),,> 100000 nM,104%,> 100000 nM,290 nM,,,> 100000 nM,,65%,78%,95.2 nM,159 nM,84%,1800 nM,16 nM
O=C(O)CCCCCCC(=O)Nc1ccc(C2=C(c3ccc(O)cc3)C3CC(S(=O)(=O)Oc4ccc(F)cc4)C2O3)cc1 (racemic),,24800 nM,99%,> 100000 nM,280 nM,,,> 100000 nM,,-13%,85%,,,38%,,18000 nM
O=C(O)CCCCCCC(=O)Nc1ccc(C2=C(c3ccc(O)cc3)C3CC(S(=O)(=O)Oc4ccc(Cl)cc4)C2O3)cc1 (racemic),241 nM,3300 nM,93%,> 100000 nM,,1460 nM,,> 100000 nM,> 30.3,44%,188%,200 nM,126 nM,149%,580 nM,790 nM
O=C(O)CCCCCCC(=O)Nc1ccc(C2=C(c3ccc(O)cc3)C3CC(S(=O)(=O)Oc4ccc(Br)cc4)C2O3)cc1 (racemic),,> 100000 nM,75%,> 100000 nM,250 nM,,1700 nM,> 100000 nM,,-3%,77%,60.5 nM,126 nM,-36%,,
Cc1cccc(OS(=O)(=O)C2CC3OC2C(c2ccc(NC(=O)CCCCCCC(=O)NO)cc2)=C3c2ccc(O)cc2)c1 (racemic),,22900 nM,115%,32200 nM,613 nM,,,> 100000 nM,,29%,48%,> 5000 nM,4430 nM,38%,54 nM,
